Entries after “also recorded” stand apart in the source; their conditions may differ.
Tests used:
F1 melanoma cells = assay: melanoma F1 cell proliferation (thymidine incorporation); assay type: cell-based; settings: F1, FIG. 5B
Description: FIGS. 5A and 5B depict the effect of N,N,N-trimethylsphingosine (open circles), N,N-dimethylsphingosine (solid circles) and sphingosine (open squares) on two melanoma cell lines, BL6, a highly malignant cell line (in FIG. 5A) and F1, a cell line of low malignancy, (in FIG. 5B). Cell proliferation was evidenced by tritiated thymidine incorporation into DNA.
(§1) An in vitro assay relying on tritiated thymidine incorporation can be used to ascertain the effect of various compounds on cell proliferation. Briefly, tumor cells are seeded in flat bottom 96 well plates (Corning, N.Y.) at a concentration of 2×10^4 cells per well. The cells are cultured for 2 days in DMEM containing various concentrations of sphingoid, which is added as a PBS solution. The medium then is supplemented with tritiated thymidine at a concentration of 0.5 μCi per well. Following a six hour incubation the cells are collected using the PHD Cell Harvester (Cambridge Technology, Cambridge, Mass.) and amounts of incorporated radioactivity are determined after adding a suitable cell lysing agent and scintillation cocktail, such as ScintiVerse BD (Fisher Scientific, Fairlawn, Calif.) which performs both functions.
Certain cancer cells show a higher metastatic potential and invasive capability than others. For example the BL6 and F10 melanoma cell lines are highly metastatic and invasive. […]

[1] = tested on: human colonic cancer cell line COLO-205; assay: tritiated thymidine incorporation, tumor cell growth (COLO-205); assay type: cell-based; settings: COLO-205, FIG. 2A
Description: FIGS. 2A-2C show the effect of sphingosine derivatives on human tumor cell growth. In FIG. 2A the growth of human colonic cancer cell line COLO-205 was monitored. In FIG. 2B the growth of human lung cancer cell line LU-65 was monitored. In FIG. 2C the growth of human gastric cancer cell line MKN-74 was monitored. In each Figure the ordinate represents the percent inhibition of tritiated thymidine incorporation, the solid circles represent sphingosine, the open circles represent N,N-dimethylsphingosine and the triangles represent N,N,N-trimethylsphingosine.
as §1, with “functions. […]” for “functions.”

mouse CTLL-2 cells = assay: CTLL-2 cell proliferation (thymidine incorporation); assay type: cell-based; settings: FIG. 10
Protocol: FIG. 10 depicts the effect of sphingosine derivatives on mouse T-cell line CTLL. Each point is the mean of three replicates. In the figure DMS represents N,N-dimethylsphingosine and TMS represents N,N,N-trimethylsphingosine.
For example, mouse CTLL-2 cells (ATCC No. TIB 214), a T lymphocyte cell line, were plated at 1.5×10^4 cells per well and exposed to test substances. Cell proliferation was monitored by thymidine incorporation.

HUVEC's = assay: morphologic damage to endothelial cells (HUVEC's); assay type: cell-based, human; settings: staurosporine 2 μM, calphostin C 5 μM
Protocol: A characteristic of neutrophils is the ability to adhere to activiated EC's and to migrate through the EC monolayer into the vascular or extravascular matrix. The effect of TMS on neutrophil interactions with EC's and their subsequent trans-endothelial migration thereof can be monitored in vitro using human umbilical endothelial cells (HUVEC's) (Luscinskas et al., J. Imm., 146, 1617, 1991). Neutrophils are added to a HUVEC monolayer and neutrophil-HUVEC interactions are assessed microscopically following fixation, embedding and staining of monolayer sections.
HUVEC's and culture media were purchased from Cell Systems (Kirkland, Wash.). The cells were maintained and cultured as described in Luscinskas et al., supra, with some modifications. Briefly, HUVEC's were maintained in 10 ml tissue culture flasks on a collagen type I bed obtained from rat tail (Upstate Biotechnology Inc, Lake Placid, N.Y.) with CS-complete medium, CS-growth factor and CS-AF-1 (Cell Systems). Cells became confluent within 2 to 4 days when incubated in 5% CO2 at 37° C.
The HUVEC monolayer in 24-well tissue culture plates were washed with M199 without FCS, then incubated with 1 ml/well of IL-1β (Boehringer Mannheim Biochemical Products, Indianapolis, Ind.) dissolved in M199 with 1% heat-inactivated FCS (HIFCS) at 10 U/ml. The plates were incubated at 37° C., 5% CO2 for 4 hr then washed gently with 1 ml of M199. […]

Compound	inhibition of cell growth (F1 melanoma cells)	inhibition of tumor cell growth [1]	suppression of CTLL-2 cell growth (mouse CTLL-2 cells)	morphologic damage to EC's (HUVEC's)
CCCCCCCCCCCCC/C=C/[C@@H](O)[C@H](CO)[N+](C)(C)C [TMS, N,N,N-trimethylsphingosine]	more effective than DMS and sphingosine	superior to sphingosine; also recorded: showed an advantage over DMS	effective in suppressing CTLL-2 cell growth	–
Calphostin C	–	–	–	striking morphologic damage to EC's

Source: patent publication US5466716A, “Liposomal trimethylsphingosine” (The Biomembrane Institute, priority 1994, dated 1995)
